Data taken from paper PMC8162404, “Proteomimetic surface fragments distinguish targets by function” (Chemical Science, 2020).
Like-named read-outs stand apart in the source and are kept apart here.

Tests used:
S100B = target: T1, S100B (Homo sapiens, UniProt P04271); test: Pull-down assay with immobilized protein and LSM libraries; assay type: binding; settings: 1:1 binding assumed, read-out: Surface mapping KD (apparent)
T1 construct: made in house; host or cells: Escherichia coli BL21(DE3)
T1 sequence (P04271 1-92): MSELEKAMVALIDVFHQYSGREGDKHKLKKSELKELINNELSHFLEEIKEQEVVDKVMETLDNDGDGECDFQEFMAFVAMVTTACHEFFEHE
Method in brief: (§1)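 Buffers were HEPES pH 7.4 with 150 mM NaCl, plus 1 mM TCEP and 1 mM CaCl2 (50 mM HEPES) for S100A4 and S100B, 1 mM TCEP for Gal-1, and no additive for RecQ-WH. Immobilized protein at 64 µM was equilibrated 30 min with the LSM sublibrary, and unbound probes were measured by LC-MS.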

RecQ-WH = target: T2, RecQ-WH (Escherichia coli, UniProt P15043); test: as above; set-up: species or system E. coli; settings: 1:1 binding assumed, read-out: Surface mapping KD (apparent)
T2 construct: coding for residues 408– 523 of E. coli RecQ; made in house; host or cells: E. coli BL21(DE3)
Method: Pull-down assays with immobilized test proteins and foldameric LSM libraries were carried out. Proteins were equilibrated with LSM probes, and equilibrium bound fractions (FB) were determined from the unbound fractions measured by HPLC-MS methods. Hits were corrected with background binding of the resin. The protocol allowed all binding events to equilibrate irrespective of affinity, specificity, and binding kinetics. This was essential to judge overall druggability and promiscuity. Importantly, the concentration of protein and the total concentration of foldameric LSMs were equimolar, which minimized competition between the probes. This experimental setup approximated independent binding of individual library members. Results were visualized as heat maps of dissociation constants (Fig. 3).
Pull-down assay and data analysis
Pull-down assay. LSM sublibraries were screened separately as previously described.(2) Experiments were performed in the following buffers: (i) 20 mM pH 7.4 HEPES, 150 mM NaCl, 5 mM CaCl2 for CaM; (ii) 50 mM pH 7.4 HEPES, 150 mM NaCl, 1 mM TCEP, 1 mM CaCl2 for S100 proteins; (iii) 20 mM pH 7.4 HEPES, 150 mM NaCl, 1 mM TCEP for Gal-1 and (iv) 20 mM pH 7.4 HEPES, 150 mM NaCl for RecQ-WH. Assays were performed in paper filter spin cups (Thermo Scientific) with sample volumes of 100 µl. Hexahistidine-tagged proteins were immobilized on previously washed Co-NTA resin (TALON, Takara Bio USA, Inc., Mountain View, CA) in 64 µM final concentration. LSM sublibrary was added, in which each of the 64 library members were used at a concentration of 1 µM. Samples were incubated at room temperature for 30 min with shaking at 100 rpm. Then, samples were centrifuged at 1000 rpm for 2 min and washed with 100 µl pull-down buffer to remove unbound compounds.
The control experiments were performed using the same compounds and the resin but without the immobilized protein. In case of competitive assays, competitor peptides were added to LSM sublibrary samples in 200 µM final concentration. In the case of Gal-1, lactose (competitor) was used in a concentration of 10 mM. Experiments were performed at least twice. Mean […]
LC-MS methods and parameters. HPLC/ESI-MS analysis was used to characterize the samples from the pull-down assay. LC-MS analysis was performed with a Thermo Scientific Dionex UltiMate 3000 HPLC system interfaced to an LTQ ion trap mass spectrometer (Thermo Electron Corp., San Jose, CA, USA). Samples were injected onto an Aeris Widepore XB-C18 (250 x 4.6 mm) analytical HPLC column using gradient elution 5-80 % solution B during 25 minutes. For pull-down samples, eluent composition was 0.1% acetic acid in distilled water (Solution A) and 0.1% acetic acid in acetonitrile (solution B). Mass spectra were acquired in full scan mode from 200 to 2000 m/z range. For overlapping peaks, selective reaction monitoring (SRM) was […]
MS data analysis. Thermo Xcalibur 2.2 software was used for peak identification and integration. The majority of the foldameric fragments could be resolved independently via HPLC-MS/MS measurements based on molecular weight, MS fragmentation pattern and retention time. Peaks of some foldamers with β3-hIle or β3-hLeu in position R2 could not be resolved, these were integrated and averaged. In the processing method, each sample component was associated to a chromatographic peak based on previously identified mass (m/z) and retention time (ref (2) and Table S7-10). Using ICIS peak detection algorithm, the general detection and integration criteria were: smoothing points: 5, baseline window: 80, area noise factor: 5, peak noise factor: 10. Using these processing setups, all raw data files were reprocessed together and analyzed. Errors in peak identification during the automatic processing were corrected manually.
Calculation of the discussed parameters
1. Bound fractions (FB.) were calculated from the HPLC-MS intensity loss of the LSM probes compared to the control where no protein was immobilized to the resin: […]

Gal-1 [1] = target: T3, Gal-1 (Homo sapiens, UniProt P09382); test: Competition pull-down with lactose; assay type: binding; settings: H14 library; lactose 10 mM; read-out: Surface mapping KD (apparent), competition
T3 construct: made in house; host or cells: E. coli BL21(DE3)
Method in brief: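 His6-tagged proteins immobilized on Co-NTA resin at 64 µM final with 64-member LSM foldamer sublibraries (1 M each, as printed) in pH 7.4 HEPES/NaCl buffers (Ca2+/TCEP per target), 30 min RT; competitor peptides 200 µM final, lactose 10 mM for Gal-1. Bound fractions from LC-MS loss vs protein-free resin; KD assuming 1:1 binding.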

CaM = target: T4, CaM (Bos taurus, UniProt P62157); test: Pull-down assay with immobilized protein and LSM libraries; assay type: binding, bovine; settings: 1:2 stoichiometry assumed, read-out: Surface mapping KD (apparent)
T4 construct: made in house; host or cells: E. coli BL21 (DE3)
Method in brief: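 His-tagged protein immobilized on Co-NTA resin, equilibrated 30 min at room temperature with LSM sublibraries (64 members, […]), equimolar protein to total probe. CaM buffer: 20 mM HEPES pH 7.4, 150 mM NaCl, 5 mM CaCl2. Bound fractions from HPLC-MS loss of unbound probe versus protein-free resin control; Kd derived.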

S100A4 = target: T5, S100A4 (Homo sapiens, UniProt P26447); test: as above; assay type: binding; settings: 1:1 binding assumed, read-out: Surface mapping KD (apparent)
T5 construct: made in house; host or cells: Escherichia coli BL21(DE3)
Method in brief: as §1

Gal-1 [2] = target: T3, Gal-1; test: as above; assay type: binding; settings: H12 library; 1:1 binding assumed; read-out: Surface mapping KD (apparent)
Method in brief: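 His-tagged protein immobilized on Co-NTA resin (64 µM) in 20 mM HEPES pH 7.4, 150 mM NaCl, equilibrated 30 min at room temperature with foldamer LSM sublibraries at equimolar total concentration. Unbound fractions quantified by HPLC-MS versus protein-free resin control; apparent KD assumes 1:1 binding.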

T2 sequence (P15043 408-523): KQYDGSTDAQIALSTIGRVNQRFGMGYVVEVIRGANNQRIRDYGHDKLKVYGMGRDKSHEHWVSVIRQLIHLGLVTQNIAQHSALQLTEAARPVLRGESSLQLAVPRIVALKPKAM
T5 sequence (P26447 whole entry): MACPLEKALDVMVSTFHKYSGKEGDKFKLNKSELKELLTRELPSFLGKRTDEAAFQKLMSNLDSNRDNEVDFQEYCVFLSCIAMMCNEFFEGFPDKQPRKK
T3 sequence (P09382 whole entry): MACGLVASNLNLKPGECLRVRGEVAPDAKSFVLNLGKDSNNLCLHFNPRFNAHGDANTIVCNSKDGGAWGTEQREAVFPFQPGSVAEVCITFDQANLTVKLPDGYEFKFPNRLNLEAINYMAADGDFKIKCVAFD

SMILES	Kd (S100B; H14 library) [µM]	Kd (RecQ-WH; H14 library) [µM]	Kd (Gal-1 [1]) [µM]	Kd (CaM; H14 library) [µM]	Kd (S100A4; H14 library) [µM]	also measured
NC(=O)[C@H]1CCCC[C@@H]1NC(=O)C[C@H](Cc1c[nH]c2ccccc12)NC(=O)[C@H]1CCCC[C@@H]1NC(=O)[C@H]1CCCC[C@@H]1NC(=O)C[C@H](CCC(=O)O)NC(=O)[C@H]1CCCC[C@@H]1N [H14 EW]	305	212	458			
N=C(N)NCCC[C@@H](CC(=O)N[C@H]1CCC[C@@H]1C(=O)N[C@H]1CCC[C@@H]1C(N)=O)NC(=O)[C@H]1CCC[C@@H]1NC(=O)[C@H]1CCC[C@@H]1NC(=O)C[C@H](Cc1c[nH]c2ccccc12)NC(=O)[C@H]1CCC[C@@H]1NC(=O)[C@H]1CCC[C@@H]1N [H12 WR]						Kd (CaM; H12 library): 226 µM; Kd (S100A4; H12 library): 326 µM; Kd (S100B; H12 library): 15 µM; Kd (RecQ-WH; H12 library): 206 µM
NC(=O)[C@H]1CCCC[C@@H]1NC(=O)C[C@H](CCC(=O)O)NC(=O)[C@H]1CCCC[C@@H]1NC(=O)[C@H]1CCCC[C@@H]1NC(=O)C[C@H](Cc1c[nH]c2ccccc12)NC(=O)[C@H]1CCCC[C@@H]1N [H14 WE]		137		191	428	
CC(C)C[C@@H](CC(=O)N[C@H]1CCCC[C@@H]1C(N)=O)NC(=O)[C@H]1CCCC[C@@H]1NC(=O)[C@H]1CCCC[C@@H]1NC(=O)C[C@H](CCCNC(=N)N)NC(=O)[C@H]1CCCC[C@@H]1N [H14 RL]	31	237		10	51	
N=C(N)NCCC[C@@H](CC(=O)N[C@H]1CCC[C@@H]1C(=O)N[C@H]1CCC[C@@H]1C(N)=O)NC(=O)[C@H]1CCC[C@@H]1NC(=O)[C@H]1CCC[C@@H]1NC(=O)C[C@H](Cc1ccccc1)NC(=O)[C@H]1CCC[C@@H]1NC(=O)[C@H]1CCC[C@@H]1N [H12 FR]						Kd (CaM; H12 library): 125 µM; Kd (Gal-1 [2]): 141 µM; Kd (S100B; H12 library): 28 µM; Kd (RecQ-WH; H12 library): 388 µM
NCCCC[C@@H](CC(=O)N[C@H]1CCCC[C@@H]1C(N)=O)NC(=O)[C@H]1CCCC[C@@H]1NC(=O)[C@H]1CCCC[C@@H]1NC(=O)C[C@H](Cc1ccc(O)cc1)NC(=O)[C@H]1CCCC[C@@H]1N [H14 YK]	89	411		17	146	
N=C(N)NCCC[C@@H](CC(=O)N[C@H]1CCCC[C@@H]1C(=O)N[C@H]1CCCC[C@@H]1C(=O)N[C@H](CC(=O)N[C@H]1CCCC[C@@H]1C(N)=O)Cc1c[nH]c2ccccc12)NC(=O)[C@H]1CCCC[C@@H]1N [H14 RW]	13	201		0.6	56	
NCCCC[C@@H](CC(=O)N[C@H]1CCCC[C@@H]1C(N)=O)NC(=O)[C@H]1CCCC[C@@H]1NC(=O)[C@H]1CCCC[C@@H]1NC(=O)C[C@H](CC(=O)O)NC(=O)[C@H]1CCCC[C@@H]1N [H14 DK]	144	314	405			
CC[C@H](C)[C@@H](CC(=O)N[C@H]1CCCC[C@@H]1C(N)=O)NC(=O)[C@H]1CCCC[C@@H]1NC(=O)[C@H]1CCCC[C@@H]1NC(=O)C[C@H](CC(=O)O)NC(=O)[C@H]1CCCC[C@@H]1N [H14 DI]		429	408			
CC[C@H](C)[C@@H](CC(=O)N[C@H]1CCCC[C@@H]1C(N)=O)NC(=O)[C@H]1CCCC[C@@H]1NC(=O)[C@H]1CCCC[C@@H]1NC(=O)C[C@H](CCCNC(=N)N)NC(=O)[C@H]1CCCC[C@@H]1N [H14 RI]	31	237		10	51	
CSCC[C@@H](CC(=O)N[C@H]1CCCC[C@@H]1C(N)=O)NC(=O)[C@H]1CCCC[C@@H]1NC(=O)[C@H]1CCCC[C@@H]1NC(=O)C[C@H](CCCNC(=N)N)NC(=O)[C@H]1CCCC[C@@H]1N [H14 RM]	79	294		30	94	
CC(C)C[C@@H](CC(=O)N[C@H]1CCCC[C@@H]1C(N)=O)NC(=O)[C@H]1CCCC[C@@H]1NC(=O)[C@H]1CCCC[C@@H]1NC(=O)C[C@H](CC(=O)O)NC(=O)[C@H]1CCCC[C@@H]1N [H14 DL]		429	408			
